Here are results for 14 compounds from patent US4029778A (priority 1969, dated 1977).

SMILES strings stand for the structures. Where two headings read alike, the source gives them in different places.

A short description of data set [1]: Harding-Passey Melanoma growth inhibition and lethality, oral (Table 5). It is filed as in vivo. Conditions: in vivo, 11 × dose. An excerpt:
(§1) The esters of the invention have shown effect in inhibiting the growth of several tumors, e.g., Ehrlich ascites, Hepatoma AH 130, lymphocytic leukemia (L1210), Walker 256 and Harding-Passey Melanoma according to the procedure of Cancer Chemotherapy National Service Center (Ref.: Cancer Chemotherapy Reports, December 1962).

Data set [2] relates to Harding-Passey Melanoma. The description is as above. It is filed as in vivo. Particulars: 11 × dose.
Text: as §1

Data set [3] is described as follows: in vivo. Conditions: ip.
Data set [4] deals with Hepatoma 130 tumor. Conditions: in vivo, ip.
A short description of data set [5]: Walker 256 tumor growth inhibition and lethality, oral (Table 5). It is filed as in vivo. Conditions: in vivo.
Text: as §1

In data set [6] the test system is Walker 256. Described as above. It is filed as in vivo.
Text: as §1

A short description of data set [7]: Hepatoma 130 tumor growth inhibition and lethality, oral (Table 5). The format is in vivo. Particulars: in vivo, 1 × dose.
Text: as §1

Data set [8] relates to Hepatoma 130. The description is as above. Particulars: 1 × dose. The format is in vivo.
Text: as §1

Data set [9] concerns Walker 256 tumor. Nature of the data set: animal or person. Particulars: Walker 256, ip, read-out: ED50 (Effect).
Data set [10] deals with Walker 256 tumor. Particulars: in vivo.
Data set [11] deals with Hepatoma 130 tumor. Nature of the data set: animal or person. Particulars: ip, read-out: ED50 (Effect).
Data set [12] concerns Harding-Passey Melanoma tumor.
Data set [13] has as its system Harding-Passey Melanoma tumor. The data set can be described thus: animal or person. Particulars: ip, read-out: ED50 (Effect).
The subject of data set [14] is tumors. The data set can be described thus: antitumor activity (statement in words). It is filed as in vivo. On the procedure:
as §1
The esters of this invention were tested for effectiveness in inhibiting the growth of Ehrlich ascites, Hepatoma 130, lymphocytic leukemia (L 1210), and Harding-Passey Melanoma, and Walker 256 tumors. The administration was by the intraperitoneal route in each case.

The subject of data set [15] is Ehrlich ascites tumor. Conditions: in vivo, ip; for Lethality: 1000 mg/kg.
The nature of data set [16]: in vivo. Particulars: ip. This is another data set of the same source.
The test system of data set [17] is Ehrlich ascites tumor. The data set can be described thus: animal or person. Conditions: ip, read-out: ED50 (Effect).

For orientation: LD50 means the dose expected to kill half of the subjects tested. For the compound `O=C(O)CCCc1ccc(N(CCCl)CCCl)cc1` [Chlorambucil, reference compound], the LD50 amounted to 7 mg/kg in data set [1], 30 mg/kg in data set [3], 13.5 mg/kg in data set [5] and 55 mg/kg in data set [7]. Moreover, the “ED50 (Effect)” value in data set [2] is reported as 2.3 mg/kg; in [4], 4.3 mg/kg; in data set [6] it was 0.42 mg/kg; in data set [8], > 31 mg/kg.
In general, ED50 refers to the dose that gives a 50% effect, or the effect in half of the subjects. For the compound `C[C@]12C=CC(=O)C=C1CC[C@@H]1[C@@H]2[C@@H](O)C[C@@]2(C)[C@H]1CC[C@]2(O)C(=O)COC(=O)CCCc1ccc(N(CCCl)CCCl)cc1` [prednisolone-21-4'-[p-/N-bis(β-chloroethyl)-amino/-phenyl]-butyrate], the ED50 was 1.1 mg/kg in [9]; 6 mg/kg in data set [2] (read-out: ED50 (Effect)); 5.8 mg/kg in data set [11]; 1 mg/kg in [6] (Walker 256, read-out: ED50 (Effect)); 155 mg/kg in [8] (read-out: ED50 (Effect)); 3.1 mg/kg in data set [13]. Moreover, the T.I. worked out at 29 in data set [10] (ip); 6.7 in data set [2]; 45 in data set [4]; 2.2 in data set [12] (intraperitoneal, 11 × dose); 64 in [6]; 2.5 in [8]. For the same compound, the 50% lethal dose (LD50) in data set [1] was 40 mg/kg; in [5], 64 mg/kg; in data set [7], 380 mg/kg.
Turning to `C[C@]12C=CC(=O)C=C1CC[C@@H]1[C@@H]2[C@@H](O)C[C@@]2(C)[C@H]1CC[C@]2(O)C(=O)COC(=O)c1ccc(N(CCCl)CCCl)cc1` [prednisolone-21-p-/N-bis(β-chloroethyl)-amino/-benzoate], the “ED50 (Effect)” value was 9.6 mg/kg in [10] (ip); 5.6 mg/kg in data set [4]; 3.4 mg/kg in data set [12] (intraperitoneal, 11 × dose); 13 mg/kg in data set [15]. For the same compound, the antitumor activity entry in data set [14] was “desired antitumor activity”. In data set [15], the Lethality entry is on record as “no toxicity”.
Turning to `Cc1ccc(C(=O)OCC(=O)[C@@]2(O)CC[C@H]3[C@@H]4CCC5=CC(=O)C=C[C@]5(C)[C@H]4[C@@H](O)C[C@@]32C)cc1N(CCCl)CCCl` [prednisolone-21-3'-[N-bis-(β-chloroethyl)-amino]-4'-methyl-benzoate], the antitumor activity result in data set [14] is listed as “having the desired antitumor activity”.
For the compound `C[C@]12C=CC(=O)C=C1CC[C@@H]1[C@@H]2C(=O)C[C@@]2(C)[C@H]1CC[C@]2(O)C(=O)COC(=O)c1ccc(N(CCCl)CCCl)cc1` [prednisone-21-p-/N-bis(β-chloroethyl)-amino/-benzoate], the “ED50 (Effect)” value in [4] was 58 mg/kg; in [12] (intraperitoneal, 11 × dose), 18 mg/kg; in data set [15], 12 mg/kg. The Lethality entry in [4] (1000 mg/kg) and in data set [15] was “no toxicity” in each case. Further, the LD50 in [16] came to 97 mg/kg.
With `C[C@]12CCC(=O)C=C1CC[C@@H]1[C@@H]2[C@@H](O)C[C@@]2(C)[C@H]1CC[C@]2(O)C(=O)COC(=O)C(N)Cc1ccc(N(CCCl)CCCl)cc1` (stereo partly drawn) [hydrocortisone-21-3'-{p-[N-bis-(β-chloroethyl)-amino]-phenyl}-2'-aminopropionate], in data set [14], the antitumor activity result is on record as “desired antitumor activity”.
`C[C@]12CCC(=O)C=C1CC[C@@H]1[C@@H]2[C@@H](O)C[C@@]2(C)[C@H]1CC[C@]2(O)C(=O)COC(=O)CCCc1ccc(N(CCCl)CCCl)cc1` [hydrocortisone-21-4'-{p-[N-bis-(β-chloroethyl)-amino]-phenyl}-butyrate]: in [14], the antitumor activity entry is “desired antitumor activity”.
Same read-out and setting: the same measure for `Cc1ccc(C(=O)OCC(=O)[C@@]2(O)CC[C@H]3[C@@H]4CCC5=CC(=O)CC[C@]5(C)[C@H]4[C@@H](O)C[C@@]32C)cc1N(CCCl)CCCl` [hydrocortisone-21-3'-[N-bis-(β-chloroethyl)-amino]-4'-methylbenzoate]: “desired antitumor activity”.
Take `C[C@]12C=CC(=O)C=C1CC[C@@H]1[C@@H]2[C@@H](O)C[C@@]2(C)[C@H]1CC[C@]2(O)C(=O)COC(=O)Cc1ccc(N(CCCl)CCCl)cc1` [prednisolone-21-p-/N-bis(β-chloroethyl)-amino/-phenylacetate]: the LD50 in [3] worked out at 560 mg/kg. Moreover, the “ED50 (Effect)” value in data set [4] came out at 27 mg/kg.
Regarding `C[C@]12C=CC(=O)C=C1CC[C@@H]1[C@@H]2[C@@H](O)C[C@@]2(C)[C@H]1CC[C@]2(O)C(=O)CO` [Prednisolone, pregna-1,4-dien-11β,17α ,21-triol-3,20-dion, reference compound], the ED50 in [9] stood at 214 mg/kg; in [11], 118 mg/kg; in [17] it was 120 mg/kg. For the same compound, the T.I. in data set [10] (ip) is listed as 3.0; in data set [4] it was 6.6; in data set [12] (in vivo, ip), < 2.5; in data set [15], > 8.3. Besides, in data set [12] (in vivo, ip, 243 mg/kg), the Effect entry was “no effect”. Moreover, in data set [15], the Lethality entry is given as “no toxicity”.
As to `C[C@]12C=CC(=O)C=C1CC[C@@H]1[C@@H]2[C@@H](O)C[C@@]2(C)[C@H]1CC[C@]2(O)C(=O)COC(=O)C(N)Cc1ccc(N(CCCl)CCCl)cc1` (stereo partly drawn) [prednisolone-21-3'-{p-[N-bis-(β-chloroethyl)-amino]-phenyl}-2'-aminopropionate], in data set [14], the antitumor activity result was “desired antitumor activity”.
For the compound `CC(=O)NC(Cc1ccc(N(CCCl)CCCl)cc1)C(=O)OCC(=O)[C@@]1(O)CC[C@H]2[C@@H]3CCC4=CC(=O)C=C[C@]4(C)[C@H]3[C@@H](O)C[C@@]21C` (stereo partly drawn) [prednisolone-21-3'-{p-[N-bis-(β-chloroethyl)-amino]-phenyl}-2'-acetamido-propionate], in data set [10], the “antitumor activity against Walker 256 tumors” value was “active antitumor agent”.
For the compound `C[C@]12CCC(=O)C=C1CC[C@@H]1[C@@H]2[C@@H](O)C[C@@]2(C)[C@H]1CC[C@]2(O)C(=O)COC(=O)c1ccc(N(CCCl)CCCl)cc1` [hydrocortisone-21-p-/N-bis(β -chloroethyl)-amino/-benzoate], the “ED50 (Effect)” value in data set [4] is listed as 28 mg/kg; in data set [12] (intraperitoneal, 11 × dose), 19 mg/kg; in data set [15] it was 15 mg/kg.
`CC(=O)NC(Cc1ccc(N(CCCl)CCCl)cc1)C(=O)OCC(=O)[C@@]1(O)CC[C@H]2[C@@H]3CCC4=CC(=O)CC[C@]4(C)[C@H]3[C@@H](O)C[C@@]21C` (stereo partly drawn) [hydrocortisone-21-3'-{p-[N-bis-(β-chloroethyl)-amino]-phenyl}-2'-acetamido-propionate]: the “antitumor activity against Walker 256 tumors” value in [10] is “same activity”.
